Measured values: US8648061B2, “Use of polyunsaturated fatty acids for the primary prevention of major cardiovascular events” (Pro Aparts Investimentos E. Consultoria LDA., priority 2001, dated 2014)

System: non-anesthetized guinea pigs
Assay: preliminary tests: minimum lethal dose of ouabain
Format: in vivo, guinea pig
Details: intravenously administered over 3 minutes
Procedure: The experimental sudden death model was obtained by cardiac arrest induced by intravenous (i.v.) administration of a cardiotoxic agent (ouabain). In preliminary tests, various doses of ouabain were administered to non-anesthetized guinea pigs of both sexes of weight 300-380 g, in order to determine the minimum lethal dose for 100% of the animals within 15 minutes from i.v. injection (240 mg/kg, intravenously administered over 3 minutes).

## C[C@@H]1O[C@@H](O[C@H]2C[C@@H](O)[C@]3(CO)[C@H]4[C@H](O)C[C@]5(C)[C@@H](C6=CC(=O)OC6)CC[C@]5(O)[C@@H]4CC[C@]3(O)C2)[C@H](O)[C@H](O)[C@H]1O [ouabain]
  minimum lethal dose for 100% of the animals within 15 minutes from i.v. injection: 240 mg/kg
